The source made the active and inactive calls.
Key:
[1] = target: T1, Short transient receptor potential channel 4 (Mus musculus, UniProt Q9QUQ5); assay: SAR Analysis for the identification of selective inhibits of the transient receptor potential cation channel C4 (TRPC4): Automated Electrophysiology_2. [Related pubchem assays (depositor defined):AID2256]; format: functional
T1 sequence (Q9QUQ5 whole entry): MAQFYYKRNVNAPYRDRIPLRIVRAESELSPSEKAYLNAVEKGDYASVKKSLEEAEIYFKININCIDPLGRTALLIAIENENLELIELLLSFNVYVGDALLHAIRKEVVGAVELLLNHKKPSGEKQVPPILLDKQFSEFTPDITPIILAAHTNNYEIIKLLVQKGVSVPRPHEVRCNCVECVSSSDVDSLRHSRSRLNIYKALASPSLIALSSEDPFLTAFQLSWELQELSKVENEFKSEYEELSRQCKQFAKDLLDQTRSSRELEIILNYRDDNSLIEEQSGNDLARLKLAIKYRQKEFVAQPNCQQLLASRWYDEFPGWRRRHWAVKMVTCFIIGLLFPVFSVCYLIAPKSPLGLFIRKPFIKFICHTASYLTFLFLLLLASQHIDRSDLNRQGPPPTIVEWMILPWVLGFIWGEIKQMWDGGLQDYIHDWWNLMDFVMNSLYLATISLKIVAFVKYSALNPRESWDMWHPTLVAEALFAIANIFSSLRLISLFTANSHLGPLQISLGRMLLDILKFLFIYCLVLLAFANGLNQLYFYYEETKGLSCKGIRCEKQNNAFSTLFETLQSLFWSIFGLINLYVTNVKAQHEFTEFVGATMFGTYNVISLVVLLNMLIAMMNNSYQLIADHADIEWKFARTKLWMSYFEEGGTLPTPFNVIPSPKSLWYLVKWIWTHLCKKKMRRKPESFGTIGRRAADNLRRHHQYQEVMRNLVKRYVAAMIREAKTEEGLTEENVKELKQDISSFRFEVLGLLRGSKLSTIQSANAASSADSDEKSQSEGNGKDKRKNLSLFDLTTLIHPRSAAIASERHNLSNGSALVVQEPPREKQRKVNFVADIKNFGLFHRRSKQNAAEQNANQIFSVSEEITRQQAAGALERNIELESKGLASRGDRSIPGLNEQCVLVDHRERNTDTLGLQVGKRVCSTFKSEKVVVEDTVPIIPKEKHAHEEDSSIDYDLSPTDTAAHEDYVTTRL

Hexokinase-1 = target: T2, Hexokinase-1 (Homo sapiens, UniProt P19367); assay: hexokinase 1 activity inhibitors, potency – biochemical, set 2, resazurin fluorescence coupled readout, selectivity assay for HKDC1 inhibitor project, SAR follow-up (AID 588356); format: functional
T2 sequence (P19367 whole entry): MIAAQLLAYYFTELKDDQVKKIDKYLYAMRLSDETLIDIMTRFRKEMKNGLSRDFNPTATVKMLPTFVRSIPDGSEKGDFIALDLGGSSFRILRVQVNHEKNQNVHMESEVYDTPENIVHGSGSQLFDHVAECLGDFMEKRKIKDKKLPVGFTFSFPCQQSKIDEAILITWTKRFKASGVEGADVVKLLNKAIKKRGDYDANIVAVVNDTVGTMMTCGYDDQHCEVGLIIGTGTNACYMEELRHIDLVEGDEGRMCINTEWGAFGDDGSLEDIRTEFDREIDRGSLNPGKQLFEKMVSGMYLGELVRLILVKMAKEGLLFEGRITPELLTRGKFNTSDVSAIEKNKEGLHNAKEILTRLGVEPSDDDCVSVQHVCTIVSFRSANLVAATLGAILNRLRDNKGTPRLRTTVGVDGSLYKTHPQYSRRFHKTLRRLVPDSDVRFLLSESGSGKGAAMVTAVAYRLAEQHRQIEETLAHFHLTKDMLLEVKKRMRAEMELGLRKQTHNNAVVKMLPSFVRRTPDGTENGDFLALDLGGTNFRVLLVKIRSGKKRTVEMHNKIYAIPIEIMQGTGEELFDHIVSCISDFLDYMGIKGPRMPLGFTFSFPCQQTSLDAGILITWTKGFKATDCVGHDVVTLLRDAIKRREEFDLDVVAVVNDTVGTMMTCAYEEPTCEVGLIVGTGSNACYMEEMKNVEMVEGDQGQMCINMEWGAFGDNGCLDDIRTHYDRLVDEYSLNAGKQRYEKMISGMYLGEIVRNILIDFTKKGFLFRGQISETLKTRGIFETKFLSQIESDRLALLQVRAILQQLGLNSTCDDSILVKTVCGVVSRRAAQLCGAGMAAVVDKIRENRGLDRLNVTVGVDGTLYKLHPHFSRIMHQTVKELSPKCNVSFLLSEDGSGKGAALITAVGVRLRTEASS

Hexokinase HKDC1 = target: T3, Hexokinase HKDC1 (Homo sapiens, UniProt Q2TB90); assay: analog inhibition of human HKDC1 activity – biochemical, set 2, SAR follow-up (AID 588355); format: functional
T3 sequence (Q2TB90 whole entry): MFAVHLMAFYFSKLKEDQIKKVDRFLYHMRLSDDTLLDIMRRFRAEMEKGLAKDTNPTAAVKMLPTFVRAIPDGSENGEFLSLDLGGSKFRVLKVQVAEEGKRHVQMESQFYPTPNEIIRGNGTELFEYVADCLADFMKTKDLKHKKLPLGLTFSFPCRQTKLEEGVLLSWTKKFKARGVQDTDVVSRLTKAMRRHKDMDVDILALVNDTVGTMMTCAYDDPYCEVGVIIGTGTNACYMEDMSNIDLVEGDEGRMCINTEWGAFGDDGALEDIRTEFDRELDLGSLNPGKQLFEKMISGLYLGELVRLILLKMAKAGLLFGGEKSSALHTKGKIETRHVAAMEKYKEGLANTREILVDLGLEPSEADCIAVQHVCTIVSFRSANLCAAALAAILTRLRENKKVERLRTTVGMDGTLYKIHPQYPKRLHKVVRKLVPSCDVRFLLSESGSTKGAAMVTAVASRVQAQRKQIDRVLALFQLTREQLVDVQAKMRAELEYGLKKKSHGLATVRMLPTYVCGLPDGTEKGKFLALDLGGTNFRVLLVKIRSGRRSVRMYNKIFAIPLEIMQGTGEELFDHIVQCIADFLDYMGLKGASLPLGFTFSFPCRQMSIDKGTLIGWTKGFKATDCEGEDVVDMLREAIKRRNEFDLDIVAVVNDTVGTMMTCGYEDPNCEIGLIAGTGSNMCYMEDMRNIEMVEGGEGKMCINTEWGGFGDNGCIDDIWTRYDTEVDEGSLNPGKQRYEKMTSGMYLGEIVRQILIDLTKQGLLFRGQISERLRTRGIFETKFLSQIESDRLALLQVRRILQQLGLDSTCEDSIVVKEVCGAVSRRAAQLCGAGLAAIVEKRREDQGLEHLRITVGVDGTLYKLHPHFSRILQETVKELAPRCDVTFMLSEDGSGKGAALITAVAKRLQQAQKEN

Nonstructural protein 1 = Nonstructural protein 1 (Influenza A virus, UniProt Q194T2); format: functional, Influenza A virus (A/California/07/2009(H1N1))
Chain of Nonstructural protein 1 (Q194T2 whole entry): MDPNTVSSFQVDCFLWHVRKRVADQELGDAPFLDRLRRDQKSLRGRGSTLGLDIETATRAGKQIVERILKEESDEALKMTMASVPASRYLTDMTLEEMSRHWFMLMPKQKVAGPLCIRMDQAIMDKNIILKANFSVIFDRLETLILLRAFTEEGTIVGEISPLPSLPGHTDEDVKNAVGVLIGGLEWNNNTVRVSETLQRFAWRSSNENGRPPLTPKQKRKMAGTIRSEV

MDCK [2] = assay: antiviral activity against H1N1 influenza, dose response, cell-based, strain KY180 (AID 540254); format: functional; conditions: Canis lupus familiaris
MDCK [3] = assay: MDCK cell cytotoxicity, dose response, cytotoxicity control (AID 540296); format: functional; conditions: Canis lupus familiaris
[4] = target: Intestinal-type alkaline phosphatase (Mus musculus, UniProt P24822); assay: PubChem AID 488875; format: functional
Chain of Intestinal-type alkaline phosphatase (Mus musculus, UniProt P24822) (P24822 whole entry): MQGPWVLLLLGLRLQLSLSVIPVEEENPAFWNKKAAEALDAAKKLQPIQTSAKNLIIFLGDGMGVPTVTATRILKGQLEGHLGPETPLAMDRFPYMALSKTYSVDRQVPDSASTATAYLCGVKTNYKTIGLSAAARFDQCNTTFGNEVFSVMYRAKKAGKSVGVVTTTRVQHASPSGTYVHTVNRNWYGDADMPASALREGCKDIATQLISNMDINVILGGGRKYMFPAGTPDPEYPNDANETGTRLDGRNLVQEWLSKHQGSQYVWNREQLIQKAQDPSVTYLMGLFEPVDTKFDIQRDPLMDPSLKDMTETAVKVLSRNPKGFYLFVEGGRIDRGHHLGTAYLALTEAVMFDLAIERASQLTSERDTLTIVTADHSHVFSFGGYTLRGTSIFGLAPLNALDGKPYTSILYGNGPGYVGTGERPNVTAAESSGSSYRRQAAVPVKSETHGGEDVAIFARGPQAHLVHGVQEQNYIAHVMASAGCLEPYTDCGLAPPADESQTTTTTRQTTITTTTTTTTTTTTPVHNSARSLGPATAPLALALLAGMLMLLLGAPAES

[5] = target: T4, Intestinal-type alkaline phosphatase (Homo sapiens, UniProt P09923); assay: human intestinal alkaline phosphatase activators, dose response, biochemical, luminescence, uHTS hits (AID 463120); format: functional
T4 sequence (P09923 whole entry): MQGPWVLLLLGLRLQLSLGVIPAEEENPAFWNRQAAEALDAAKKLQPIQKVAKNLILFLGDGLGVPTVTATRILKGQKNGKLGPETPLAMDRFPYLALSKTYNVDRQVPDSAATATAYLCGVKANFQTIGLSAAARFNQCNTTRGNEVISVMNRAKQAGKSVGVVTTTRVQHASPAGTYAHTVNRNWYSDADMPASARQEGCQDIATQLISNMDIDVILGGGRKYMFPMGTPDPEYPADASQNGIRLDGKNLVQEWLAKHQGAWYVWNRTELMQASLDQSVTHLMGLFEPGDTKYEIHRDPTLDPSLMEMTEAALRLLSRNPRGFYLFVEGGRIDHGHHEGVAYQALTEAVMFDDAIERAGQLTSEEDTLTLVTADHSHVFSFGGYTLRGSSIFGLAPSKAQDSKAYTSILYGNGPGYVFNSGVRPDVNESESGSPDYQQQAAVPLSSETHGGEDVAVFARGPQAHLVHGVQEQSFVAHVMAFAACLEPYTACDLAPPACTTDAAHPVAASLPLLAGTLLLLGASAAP

[6] = target: T4, Intestinal-type alkaline phosphatase; assay: activation of human intestinal alkaline phosphatase – biochemical, luminescent, uHTS hits, set 2, dose response (AID 488817); format: functional;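 also: potency of activators that raise enzyme activity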
[7] = target: T5, Alkaline phosphatase, tissue-nonspecific isozyme (Homo sapiens, UniProt P05186); assay: activation of tissue-nonspecific alkaline phosphatase – biochemical, TNAP isozyme, human IAP uHTS hits, selectivity assay for human IAP activator project, dose response (AID 488886); format: functional;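 also: potency of compounds raising TNAP activity as a selectivity check on IAP activators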
T5 sequence (P05186 whole entry): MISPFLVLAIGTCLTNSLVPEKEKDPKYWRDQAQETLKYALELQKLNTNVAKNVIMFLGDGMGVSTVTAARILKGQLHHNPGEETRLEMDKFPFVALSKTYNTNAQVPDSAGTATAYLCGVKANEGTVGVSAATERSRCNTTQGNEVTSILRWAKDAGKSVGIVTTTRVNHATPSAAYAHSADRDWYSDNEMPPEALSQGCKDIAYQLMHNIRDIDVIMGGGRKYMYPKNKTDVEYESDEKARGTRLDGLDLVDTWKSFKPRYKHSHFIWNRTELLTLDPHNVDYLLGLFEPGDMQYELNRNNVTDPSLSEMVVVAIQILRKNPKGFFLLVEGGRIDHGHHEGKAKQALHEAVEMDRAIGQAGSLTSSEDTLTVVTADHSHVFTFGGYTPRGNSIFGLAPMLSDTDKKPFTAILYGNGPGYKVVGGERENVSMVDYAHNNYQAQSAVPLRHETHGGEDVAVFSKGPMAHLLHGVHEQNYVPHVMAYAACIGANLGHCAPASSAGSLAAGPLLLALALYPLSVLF

[8] = target: Heat shock protein HSP 90-alpha (Homo sapiens, UniProt P07900); format: functional, organism-based
[9] = target: Dual specificity tyrosine-phosphorylation-regulated kinase 1A (Rattus norvegicus, UniProt Q63470); format: biochemical, Homo sapiens
[10] = target: T6, Mannose-6-phosphate isomerase (Homo sapiens, UniProt P34949); assay: phosphomannose isomerase inhibition – biochemical, fluorescence intensity, confirmation (AID 1535)
T6 sequence (P34949 whole entry): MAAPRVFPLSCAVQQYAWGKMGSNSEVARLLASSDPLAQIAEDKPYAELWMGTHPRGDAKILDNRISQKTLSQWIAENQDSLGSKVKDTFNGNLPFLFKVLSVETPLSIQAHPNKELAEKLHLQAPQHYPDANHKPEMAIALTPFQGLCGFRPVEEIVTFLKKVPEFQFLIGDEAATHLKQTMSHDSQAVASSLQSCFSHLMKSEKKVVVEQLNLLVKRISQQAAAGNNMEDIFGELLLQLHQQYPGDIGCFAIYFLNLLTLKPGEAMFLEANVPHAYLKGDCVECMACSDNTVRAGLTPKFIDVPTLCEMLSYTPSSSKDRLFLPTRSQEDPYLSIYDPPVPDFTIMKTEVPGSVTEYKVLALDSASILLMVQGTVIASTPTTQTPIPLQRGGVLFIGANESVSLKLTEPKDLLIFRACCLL

Phosphomannomutase 2 = Phosphomannomutase 2 (Homo sapiens, UniProt O15305); assay: Counter screen SAR assay for PMM2 inhibitors via a fluorescence intensity assay. [Related pubchem assays (depositor defined):AID1545, AID1574]
Chain of Phosphomannomutase 2 (O15305 whole entry): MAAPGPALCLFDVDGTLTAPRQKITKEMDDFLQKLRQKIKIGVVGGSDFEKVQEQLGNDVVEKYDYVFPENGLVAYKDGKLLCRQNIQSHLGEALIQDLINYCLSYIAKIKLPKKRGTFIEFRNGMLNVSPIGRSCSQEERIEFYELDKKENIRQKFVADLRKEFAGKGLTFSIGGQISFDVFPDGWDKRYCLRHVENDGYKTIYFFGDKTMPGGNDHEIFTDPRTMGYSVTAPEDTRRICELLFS

[11] = target: Phosphoethanolamine/phosphocholine phosphatase (Homo sapiens, UniProt Q8TCT1); assay: SAR assay for compounds that inhibit PHOSPHO1. [Related pubchem assays (depositor defined):AID1545, AID1565, AID1574]
Chain of Phosphoethanolamine/phosphocholine phosphatase (Q8TCT1 whole entry): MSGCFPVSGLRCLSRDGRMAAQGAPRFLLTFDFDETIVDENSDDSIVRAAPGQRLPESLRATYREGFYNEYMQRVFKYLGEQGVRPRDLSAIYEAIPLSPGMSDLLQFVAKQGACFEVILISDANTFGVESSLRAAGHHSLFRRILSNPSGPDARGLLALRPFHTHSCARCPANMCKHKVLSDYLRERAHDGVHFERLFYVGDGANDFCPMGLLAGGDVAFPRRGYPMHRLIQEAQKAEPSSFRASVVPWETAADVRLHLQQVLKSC

[12] = Luminescence Cell-Based/Microorganism Confirmation at Dose of Inhibitors of Trypanosoma cruzi Infection. [Related pubchem assays: 1885, 1968 ]; format: functional
[13] = Trypanosoma cruzi growth suppression in host cells – NIH3T3 host cells, beta-gal luminescence, confirmation (AID 2044); format: functional, cell-based;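 also: intracellular parasites grown in NIH/3T3 mouse fibroblasts as host cells; luminescent beta-galactosidase reporter signal from transgenic T. cruzi replicating inside host cells; inhibitors lower the luminescence signal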
[14] = Luminescence Cell-Based Secondary HTS screen to identify cytotoxic compounds of NIH3T3 cells. [Related pubchem assays: 1885, 1968 ]; format: functional
[15] = NIH3T3 cell viability loss – ATP luminescence, mouse fibroblasts, counter-screen, dose response (AID 2010); format: functional, cell-based;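 also: cells exposed to compound for about 90 hours before reading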
[16] = T. cruzi infection blockers in NIH3T3 cells – beta-gal luminescence, NIH3T3 host cells, confirmation (AID 2630); format: functional, cell-based; conditions: Mus musculus
[17] = Luminescence Cell-Based Dose Retest to Confirm Inhibitors of Cancer Stem Cells. [Related pubchem assays (depositor defined):AID2717, AID2721]; format: functional; conditions: Homo sapiens
[18] = viability loss of HMLE_sh_eGFP cells – cell-based, luminescence, counter-screen for HMLE_sh_ECad selective toxicity project, dose response (AID 463074); format: functional, Homo sapiens;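 also: HMLE human mammary epithelial cells expressing control shRNA against eGFP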
Keap1/Nrf2 = Keap1/Nrf2 (Homo sapiens, UniProt Q14145); assay: disruptors of Keap1 binding to Nrf2 peptide – biochemical, fluorescence polarization, cherry-picked samples, dose response (AID 588683)
Chain of Keap1/Nrf2 (Q16236 whole entry): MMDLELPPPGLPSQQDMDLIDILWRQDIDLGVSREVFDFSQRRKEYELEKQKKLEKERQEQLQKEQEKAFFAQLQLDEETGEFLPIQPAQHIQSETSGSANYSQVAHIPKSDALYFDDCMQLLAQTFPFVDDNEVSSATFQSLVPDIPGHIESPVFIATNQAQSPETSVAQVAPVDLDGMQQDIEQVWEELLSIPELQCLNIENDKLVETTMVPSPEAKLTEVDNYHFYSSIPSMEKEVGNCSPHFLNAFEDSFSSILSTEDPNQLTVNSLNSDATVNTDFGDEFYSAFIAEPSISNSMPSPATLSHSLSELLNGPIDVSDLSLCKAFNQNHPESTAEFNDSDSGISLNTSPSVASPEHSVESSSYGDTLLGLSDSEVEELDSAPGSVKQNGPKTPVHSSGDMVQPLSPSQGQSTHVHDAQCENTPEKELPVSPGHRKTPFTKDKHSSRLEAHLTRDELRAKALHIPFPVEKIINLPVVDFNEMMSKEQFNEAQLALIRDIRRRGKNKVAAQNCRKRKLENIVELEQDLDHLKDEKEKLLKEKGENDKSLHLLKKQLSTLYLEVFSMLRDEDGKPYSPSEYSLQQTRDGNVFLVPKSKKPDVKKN
Chain of Keap1/Nrf2 (Q14145 whole entry): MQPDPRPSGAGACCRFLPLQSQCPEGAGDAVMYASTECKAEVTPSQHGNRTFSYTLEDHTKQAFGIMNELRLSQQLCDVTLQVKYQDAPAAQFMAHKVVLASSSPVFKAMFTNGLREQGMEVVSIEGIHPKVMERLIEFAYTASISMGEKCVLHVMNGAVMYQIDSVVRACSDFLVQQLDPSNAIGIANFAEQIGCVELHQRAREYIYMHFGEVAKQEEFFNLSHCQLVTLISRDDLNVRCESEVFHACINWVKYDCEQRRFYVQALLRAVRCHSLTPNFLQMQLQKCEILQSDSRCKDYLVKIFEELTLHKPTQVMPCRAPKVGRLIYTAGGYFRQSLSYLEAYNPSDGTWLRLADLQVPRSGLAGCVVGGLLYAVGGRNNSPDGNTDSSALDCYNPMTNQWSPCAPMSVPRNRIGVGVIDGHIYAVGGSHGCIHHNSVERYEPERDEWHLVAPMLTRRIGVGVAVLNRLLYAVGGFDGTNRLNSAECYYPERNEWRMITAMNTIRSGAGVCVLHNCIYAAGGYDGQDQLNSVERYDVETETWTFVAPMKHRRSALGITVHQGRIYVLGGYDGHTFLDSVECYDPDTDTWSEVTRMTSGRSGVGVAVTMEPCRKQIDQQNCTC

HeLa = assay: ATP-based viability loss in HeLa cells – cell-based, CellTiter-Glo luminescence, cherry-pick samples, cytotoxicity control for MITF activator project, dose response (AID 540259); format: functional; conditions: Homo sapiens

## Cc1cc(N2CCN(c3ccccc3C#N)CC2)nc2ccccc12
[1]
  IC50: 8.9 µM (active)

## Cc1ccc(NC2c3ccccc3C(=O)N2c2ccccc2C)cc1 (centres undefined)
Hexokinase-1
  IC50: > 80 µM (inactive)
Hexokinase HKDC1
  IC50: > 80 µM (inactive)

## CCOC(=O)c1c(CN(C)C)oc2cc(CN(C)C)c(O)c(CSc3ccccc3)c12
Nonstructural protein 1
  IC50: > 100 µM (active)
MDCK [2]
  IC50: 22.6 µM (active)
MDCK [3]
  CC50: 19.5 µM (active)

## COc1ccc(CN2CCC(n3nccc3NC(=O)CCCc3ccccc3)CC2)cc1C
[4]
  EC50: 75 µM (active)
[5]
  EC50: 77.4 µM (active)
[6]
  EC50: 72.5 µM (active)
[7]
  EC50: 70.1 µM (active)

## O=[N+]([O-])c1cc(/C=N/O)ccc1Oc1ccccc1Cl
[8]
  AC50: 3.04 µM (active)
[9]
  AC50: 3.19 µM (active)

## O=c1c2c([N+](=O)[O-])cc([N+](=O)[O-])cc2sn1-c1cccc(F)c1
[10]
  IC50: 30.1 µM (active)
Phosphomannomutase 2
  IC50: 2.08 µM (active)
[11]
  IC50: 0.0348 µM (active)

## Cc1ccccc1OCCCCCn1ccnc1
[12]
  EC50: 0.417 µM (active)
[13]
  EC50: 0.54 µM (active)
[14]
  EC50: 116 µM (active)
[15]
  EC50: > 60 µM (not active)
[16]
  EC50: 0.417 µM (active)

## Cc1ccc2ncnc(Nc3ccc(C)c(C)c3)c2c1
[17]
  AC50: 1.03 µM (active)
[18]
  AC50: 63.8 µM (active)

## CCCCOc1ccc(C2OC34CCCCC3C(C#N)(C#N)C2(C#N)C(=N)O4)cc1 (centres undefined)
Keap1/Nrf2
  AC50: > 52 µM (inactive)

## CCCN(Cc1ccc(C)cc1)C(=O)c1ccc(CNS(=O)(=O)c2ccc(C(C)=O)cc2)cc1
HeLa
  AC50: 37.4 µM (active)

Reference: ChEMBL document CHEMBL1201862, “PubChem BioAssay data set” (2004)
